# Results taken from ChEMBL document CHEMBL5126573, “Scaffold modifications to the 4-(4,4-dimethylpiperidinyl) 2,6-dimethylpyridinyl class of HIV-1 allosteric integrase inhibitors” (Bioorg Med Chem, 2022).
# Tested on: Human immunodeficiency virus 1
# Experiment: Antiviral activity against recombinant HIV1 NLRep-Rluc harbouring polymorphic 124T/125T integrase infected in human MT2 cells assessed as inhibition of virus growth in presence of fetal bovine serum by measuring luciferase activity after 5 days by Luciferase Assay
# Type: functional, organism-based
# Conditions: Human immunodeficiency virus 1, NLRep-Rluc, MT2, 120 h
row,Structure (SMILES),EC50 [nM]
1,Cc1c([C@H](OC(C)(C)C)C(=O)O)c(N2CCC(C)(C)CC2)c(-c2ccc3c(c2)CCN(c2ncnc4c2oc2ccccc24)C3)c2ncnn12,2.9
2,Cc1c([C@H](OC(C)(C)C)C(=O)O)c(N2CCC(C)(C)CC2)c(-c2ccc(OCCc3ccc(F)cc3)cc2)c2ncnn12,2.4
3,Cc1c([C@H](OC(C)(C)C)C(=O)O)c(N2CCC(C)(C)CC2)c(-c2ccc(OCCc3ccc(F)cc3)cc2)c2cnnn12,5.8
4,Cc1c([C@H](OC(C)(C)C)C(=O)O)c(N2CCC(C)(C)CC2)c(-c2ccc(OCCc3ccc(F)cc3)cc2)c2nc(C(F)(F)F)cn12,5.2
5,Cc1c([C@H](OC(C)(C)C)C(=O)O)c(N2CCC(C)(C)CC2)c(-c2ccc(OCCc3ccc(F)cc3)cc2)c2nccn12,1.1

# Tested on: Human immunodeficiency virus 1
# Experiment: Antiviral activity against recombinant HIV1 NLRep-Rluc harbouring polymorphic 124N/125A integrase infected in human MT2 cells assessed as inhibition of virus growth in presence of fetal bovine serum by measuring luciferase activity after 5 days by Luciferase Assay
# Type: functional, organism-based
# Conditions: Human immunodeficiency virus 1, NLRep-Rluc, MT2, 120 h
row,Structure (SMILES),EC50 [nM]
1,Cc1c([C@H](OC(C)(C)C)C(=O)O)c(N2CCC(C)(C)CC2)c(-c2ccc3c(c2)CCN(c2ncnc4c2oc2ccccc24)C3)c2ncnn12,5.1
2,Cc1c([C@H](OC(C)(C)C)C(=O)O)c(N2CCC(C)(C)CC2)c(-c2ccc(OCCc3ccc(F)cc3)cc2)c2ncnn12,4
3,Cc1c([C@H](OC(C)(C)C)C(=O)O)c(N2CCC(C)(C)CC2)c(-c2ccc(OCCc3ccc(F)cc3)cc2)c2cnnn12,14.8
4,Cc1c([C@H](OC(C)(C)C)C(=O)O)c(N2CCC(C)(C)CC2)c(-c2ccc(OCCc3ccc(F)cc3)cc2)c2nc(C(F)(F)F)cn12,12.4
5,Cc1c([C@H](OC(C)(C)C)C(=O)O)c(N2CCC(C)(C)CC2)c(-c2ccc(OCCc3ccc(F)cc3)cc2)c2nccn12,1.9

# Tested on: Human immunodeficiency virus 1
# Experiment: Antiviral activity against recombinant HIV1 NLRep-Rluc harbouring polymorphic 124A/125A integrase infected in human MT2 cells assessed as inhibition of virus growth in presence of fetal bovine serum by measuring luciferase activity after 5 days by Luciferase Assay
# Type: functional, organism-based
# Conditions: Human immunodeficiency virus 1, NLRep-Rluc, MT2, 120 h
row,Structure (SMILES),EC50 [nM]
1,Cc1c([C@H](OC(C)(C)C)C(=O)O)c(N2CCC(C)(C)CC2)c(-c2ccc3c(c2)CCN(c2ncnc4c2oc2ccccc24)C3)c2ncnn12,5
2,Cc1c([C@H](OC(C)(C)C)C(=O)O)c(N2CCC(C)(C)CC2)c(-c2ccc(OCCc3ccc(F)cc3)cc2)c2ncnn12,4.6
3,Cc1c([C@H](OC(C)(C)C)C(=O)O)c(N2CCC(C)(C)CC2)c(-c2ccc(OCCc3ccc(F)cc3)cc2)c2cnnn12,11.5
4,Cc1c([C@H](OC(C)(C)C)C(=O)O)c(N2CCC(C)(C)CC2)c(-c2ccc(OCCc3ccc(F)cc3)cc2)c2nc(C(F)(F)F)cn12,10.4
5,Cc1c([C@H](OC(C)(C)C)C(=O)O)c(N2CCC(C)(C)CC2)c(-c2ccc(OCCc3ccc(F)cc3)cc2)c2nccn12,1.7

# Tested on: not listed separately
# Experiment: Cytotoxicity against human MT2 cells infected with HIV1 NLRep-Rluc harbouring polymorphic 124T/125T integrase
# Type: toxicity, cell-based
# Conditions: MT2 cells infected with HIV-1 NLRep-Rluc
row,Structure (SMILES),CC50 [nM]
1,Cc1c([C@H](OC(C)(C)C)C(=O)O)c(N2CCC(C)(C)CC2)c(-c2ccc3c(c2)CCN(c2ncnc4c2oc2ccccc24)C3)c2ncnn12,≥ 3000
2,Cc1c([C@H](OC(C)(C)C)C(=O)O)c(N2CCC(C)(C)CC2)c(-c2ccc(OCCc3ccc(F)cc3)cc2)c2ncnn12,≥ 18200
3,Cc1c([C@H](OC(C)(C)C)C(=O)O)c(N2CCC(C)(C)CC2)c(-c2ccc(OCCc3ccc(F)cc3)cc2)c2cnnn12,≥ 18200
4,Cc1c([C@H](OC(C)(C)C)C(=O)O)c(N2CCC(C)(C)CC2)c(-c2ccc(OCCc3ccc(F)cc3)cc2)c2nc(C(F)(F)F)cn12,≥ 10300
5,Cc1c([C@H](OC(C)(C)C)C(=O)O)c(N2CCC(C)(C)CC2)c(-c2ccc(OCCc3ccc(F)cc3)cc2)c2nccn12,≥ 10300

# Tested on: not listed separately
# Experiment: Metabolic stability in human liver microsomes assessed as half life
# Type: ADME, Microsome
# Conditions: not given
row,Structure (SMILES),half-life [h]
1,Cc1c([C@H](OC(C)(C)C)C(=O)O)c(N2CCC(C)(C)CC2)c(-c2ccc(OCCc3ccc(F)cc3)cc2)c2ncnn12,> 2
2,Cc1c([C@H](OC(C)(C)C)C(=O)O)c(N2CCC(C)(C)CC2)c(-c2ccc(OCCc3ccc(F)cc3)cc2)c2nccn12,> 2

# Tested on: not listed separately
# Experiment: Metabolic stability in rat liver microsomes assessed as half life
# Type: ADME, Microsome
# Conditions: not given
row,Structure (SMILES),half-life [h]
1,Cc1c([C@H](OC(C)(C)C)C(=O)O)c(N2CCC(C)(C)CC2)c(-c2ccc(OCCc3ccc(F)cc3)cc2)c2ncnn12,> 2
2,Cc1c([C@H](OC(C)(C)C)C(=O)O)c(N2CCC(C)(C)CC2)c(-c2ccc(OCCc3ccc(F)cc3)cc2)c2nccn12,> 2

# Tested on: not listed separately
# Experiment: Metabolic stability in Sprague-Dawley rat assessed as clearance at 1 mg/kg, iv
# Type: ADME, organism-based
# Conditions: in vivo
row,Structure (SMILES),clearance [mL/min/kg]
1,Cc1c([C@H](OC(C)(C)C)C(=O)O)c(N2CCC(C)(C)CC2)c(-c2ccc3c(c2)CCN(c2ncnc4c2oc2ccccc24)C3)c2ncnn12,1.5
2,Cc1c([C@H](OC(C)(C)C)C(=O)O)c(N2CCC(C)(C)CC2)c(-c2ccc(OCCc3ccc(F)cc3)cc2)c2ncnn12,11.9
3,Cc1c([C@H](OC(C)(C)C)C(=O)O)c(N2CCC(C)(C)CC2)c(-c2ccc(OCCc3ccc(F)cc3)cc2)c2nccn12,12.5

# Tested on: not listed separately
# Experiment: AUC (0 to infinity) in Sprague-Dawley rat at 5 mg/kg, po
# Type: ADME, organism-based
# Set-up: time infinity, dose 5 mg/kg, route po
# Conditions: in vivo
row,Structure (SMILES),AUC(0-inf) [µM·h]
1,Cc1c([C@H](OC(C)(C)C)C(=O)O)c(N2CCC(C)(C)CC2)c(-c2ccc3c(c2)CCN(c2ncnc4c2oc2ccccc24)C3)c2ncnn12,30.7
2,Cc1c([C@H](OC(C)(C)C)C(=O)O)c(N2CCC(C)(C)CC2)c(-c2ccc(OCCc3ccc(F)cc3)cc2)c2ncnn12,3.59
3,Cc1c([C@H](OC(C)(C)C)C(=O)O)c(N2CCC(C)(C)CC2)c(-c2ccc(OCCc3ccc(F)cc3)cc2)c2nccn12,1.48

# Tested on: not listed separately
# Experiment: Oral bioavailability in Sprague-Dawley rat at 5 mg/kg
# Type: ADME, organism-based
# Conditions: in vivo
row,Structure (SMILES),bioavailability [%]
1,Cc1c([C@H](OC(C)(C)C)C(=O)O)c(N2CCC(C)(C)CC2)c(-c2ccc3c(c2)CCN(c2ncnc4c2oc2ccccc24)C3)c2ncnn12,37
2,Cc1c([C@H](OC(C)(C)C)C(=O)O)c(N2CCC(C)(C)CC2)c(-c2ccc(OCCc3ccc(F)cc3)cc2)c2ncnn12,28
3,Cc1c([C@H](OC(C)(C)C)C(=O)O)c(N2CCC(C)(C)CC2)c(-c2ccc(OCCc3ccc(F)cc3)cc2)c2nccn12,13

# Tested on: not listed separately
# Experiment: Permeability of the compound at pH 5.5 by PAMPA assay
# Type: ADME
# Conditions: read-out: permeability
row,Structure (SMILES),Papp [×10⁻⁶ cm/s]
1,Cc1c([C@H](OC(C)(C)C)C(=O)O)c(N2CCC(C)(C)CC2)c(-c2ccc(OCCc3ccc(F)cc3)cc2)c2ncnn12,160
2,Cc1c([C@H](OC(C)(C)C)C(=O)O)c(N2CCC(C)(C)CC2)c(-c2ccc(OCCc3ccc(F)cc3)cc2)c2nccn12,49.8

# Tested on: not listed separately
# Experiment: Permeability of the compound at pH 7.4 by PAMPA assay
# Type: ADME
# Conditions: read-out: permeability
row,Structure (SMILES),Papp [×10⁻⁶ cm/s]
1,Cc1c([C@H](OC(C)(C)C)C(=O)O)c(N2CCC(C)(C)CC2)c(-c2ccc3c(c2)CCN(c2ncnc4c2oc2ccccc24)C3)c2ncnn12,47.4
2,Cc1c([C@H](OC(C)(C)C)C(=O)O)c(N2CCC(C)(C)CC2)c(-c2ccc(OCCc3ccc(F)cc3)cc2)c2ncnn12,65.4
3,Cc1c([C@H](OC(C)(C)C)C(=O)O)c(N2CCC(C)(C)CC2)c(-c2ccc(OCCc3ccc(F)cc3)cc2)c2nccn12,41

# Tested on: not listed separately
# Experiment: Toxicity in rat H4-II-E cells assessed as fold change in lipid droplet formation at 10 uM incubated for 72 hrs boron-dipyrromethene staining based by high content screening (HCS) fluorescence analysis relative to control
# Type: cell-based
# Conditions: not given
row,Structure (SMILES),fold change (FC)
1,Cc1c([C@H](OC(C)(C)C)C(=O)O)c(N2CCC(C)(C)CC2)c(-c2ccc(OCCc3ccc(F)cc3)cc2)c2ncnn12,1.6
2,Cc1c([C@H](OC(C)(C)C)C(=O)O)c(N2CCC(C)(C)CC2)c(-c2ccc(OCCc3ccc(F)cc3)cc2)c2nccn12,1.9

# Tested on: not listed separately
# Experiment: Toxicity in human Huh-7 cells assessed as fold change in lipid droplet formation at 10 uM incubated for 72 hrs boron-dipyrromethene staining based by high content screening (HCS) fluorescence analysis relative to control
# Type: cell-based
# Conditions: huh-7, 72 h
row,Structure (SMILES),fold change (FC)
1,Cc1c([C@H](OC(C)(C)C)C(=O)O)c(N2CCC(C)(C)CC2)c(-c2ccc(OCCc3ccc(F)cc3)cc2)c2ncnn12,2.7
2,Cc1c([C@H](OC(C)(C)C)C(=O)O)c(N2CCC(C)(C)CC2)c(-c2ccc(OCCc3ccc(F)cc3)cc2)c2nccn12,3.3
